In test [1] the test system is HCV genotype 1b replicon. The experiment in a line: HCV replicon assay, genotype 1b (cell ELISA for replicon-encoded NS3/4A). As to conditions: Hepatitis C virus, 96 h, read-out: 1b IC50. It counts as cell-based. The method, then: (§1) Measurement of inhibition by compounds was performed using the HCV replicon system. Several different replicons encoding different HCV genotypes or mutations were used. In addition, potency measurements were made using different formats of the replicon assay, including different ways of measurements and different plating formats. See Jan M. Vrolijk et al., A replicons-based bioassay for the measurement of interferons in patients with chronic hepatitis C, 110 J. V[…] 201 (2003); Steven S. Carroll et al., Inhibition of Hepatitis C Virus RNA Replication by 2′-Modified Nucleoside Analogs, 278(14) J. BIOLOGICAL CHEMISTRY 11979 (2003). However, the underlying principles are common to all of these determinations, and are outlined below.
(§2) Stable neomycin phosphotransferase encoding replicons-harboring cell lines were used, so all cell lines were maintained under G418 selection prior to the assay. Potency was determined using a cell ELISA assay with an antibody to the replicons encoded NS3/4a protease. See Caterina Trozzi et al., In Vitro Selection and Characterization of Hepatitis C Virus Serine Protease Variants Resistant to an Active-Site Peptide Inhibitor, 77(6) J. Virol. 3669 (2003). To initiate an assay, replicon cells were plated in the presence of a dilution series of test compound in the absence of G418. Typically, the assays were performed in a 96-well plate formate for manual operation, or a 384-well plate format for automated assay. Replicon cells and compound were incubated for 96 hours. At the end of the assay, cells were washed free of media and compound, and the cells were then lysed. RNA was quantified indirectly through detection of replicon-encoded NS3/4A protein levels, through an ELISA-based assay with an antibody specific for NS3/4A. IC50 determinations were calculated as a percentage of a DMSO control by fitting the data to a four-parameter fit function and the data obtained is provided in the table below.
(§3) Data for selected compounds of the present invention was obtained for genotypes 1a and 1b using this method and is provided in the table below: […]
In general terms: A replicon is a self-replicating genome or part of one, used to study replication in cells.

The subject of test [2] is HCV genotype 1a replicon. The experiment in a line: HCV replicon assay, genotype 1a (cell ELISA for replicon-encoded NS3/4A). Type of test: cell-based. Conditions: Hepatitis C virus, 96 h, read-out: 1a IC50. As to the method: as §1, §2, §3

Broadly, the IC50 is the concentration needed to halve the response being measured. For `CNC(=O)c1c(-c2ccc(OC(C)C)nc2)oc2cc(N(C)S(C)(=O)=O)c(-c3ccc4c(n3)-c3cc5c(F)cccc5n3CO4)cc12` [Compound 10], the half-inhibitory concentration (IC50) stood at 13 nM in test [1] and 15 nM in test [2].
The matching figures for `CCn1cc(-c2oc3cc(N(C)S(C)(=O)=O)c(-c4ccc5c(n4)-c4cc6c(F)cccc6n4CO5)cc3c2C(=O)NC)cn1` [Compound 14]: 18 nM and 9.1 nM.
The matching figures for `CNC(=O)c1c(-n2cccn2)oc2cc(N(C)S(C)(=O)=O)c(-c3ccc4c(n3)-c3cc5c(F)cccc5n3CO4)cc12` [Compound 40]: 22 nM and 16 nM.
On to `CNC(=O)c1c(-c2ccc(OC)nc2)oc2cc(N(C)S(C)(=O)=O)c(-c3ccc4c(n3)-c3nc5cccc(F)c5n3CO4)cc12` [Compound 19, 5-(8-fluoro-6H-benzo[4,5]imidazo[1,2-c]pyrido[2,3-e][1,3]oxazin-2-yl)-2-(6-methoxypyridin-3-yl)-N-methyl-6-(N-methylmethylsulfonamido)benzofuran-3-carboxamide], for which the figures for the IC50 in test [1] and in test [2] were 13 nM and 35 nM, respectively.
In the same order, the values of `CNC(=O)c1oc2cc(N(C)S(C)(=O)=O)c(-c3ccc4c(n3)-c3cc5c(F)cccc5n3CO4)cc2c1C(=O)NC` [Compound 54, 5-(11-fluoro-6H-pyrido[2′,3′:5,6][1,3]oxazino[3,4-a]indol-2-yl)-N2,N3-dimethyl-6-(N-methylmethylsulfonamido)benzofuran-2,3-dicarboxamide] are 7.1 nM and 4.3 nM.
In the same order, the values of `CNC(=O)c1c(C2=CCCC2)oc2cc(N(C)S(C)(=O)=O)c(-c3ncc4c(n3)-c3cc5ccccc5n3CO4)cc12` [Compound 46] are 13 nM and 15 nM.
For the compound `CNC(=O)c1c(C2CC2)oc2cc(N(C)S(C)(=O)=O)c(-c3ccc4c(n3)-c3cc5c(F)cccc5n3C(CO)O4)cc12` (single isomer, unassigned) [Compound 51, (R or S)-2-cyclopropyl-5-(11-fluoro-6-(hydroxymethyl)-6H-pyrido[2′,3′:5,6][1,3]oxazino[3,4-a]indol-2-yl)-N-methyl-6-(N-methylmethylsulfonamido)benzofuran-3-carboxamide], the results for the half-maximal inhibitory concentration (IC50) in test [1] and in test [2] were 15 nM and 8.3 nM, respectively.
